Values joined by “and” are separate entries in the source; they are usually repeats but may differ in a detail not shown here. Equal entries are not always repeated. Where two headings read alike, the source gives them in different places.
Experiments:
[1] = tested on: murine peritoneal exudate cells (PEC); assay: "In vitro-ex vivo" effect on the phagocytic activity of exudate peritoneal cells (SRBC phagocytosis); parameters: species or system mouse (B6 D2 F1); settings: for SRBC per phagocytizing cell: average number of SRBC in each phagocyte
Method: Assessment of the "in vitro-ex vivo" effect of ST 557, ST 563, ST 564, ST 570, ST 608 and ST 626 on the phagocytic activity of exudate peritoneal cells (PEC)
Male B6 D2 F1 mice aged 6-8 weeks (5 animals each group) were used.
The compounds were administered i.p. (25 mg/kg/day), ST 557, ST 563 and ST 626 were also administered per os (100 mg/kg/day) from day -5 to day -1 (PEC harvesting at day 0).
The experimental procedure was substantially the same as that described by Williams et al., in "Methods in Immunology and Immunochemistry", Acad. Press. 5: 261 (1976).
In particular, 24 hours following the end of the treatment, PECs from each experimental group were harvested, pooled and their concentration was adjusted to 4×10^6 cells/ml.
To volumes of 250 μl of each PEC sample were added equal volumes of 0.4% SRBC (Sheep Red Blood Cells) opsonized with hyperimmune serum.
The samples (duplicate) were incubated for 1 hour and then subjected to hypotonic shock in order to remove the non-phagocytized SRBC. After restoring the osmolarity, the phagocytes were cytocentrifuged, stained with a differential dye and observed under the microscope.
The results were expressed as:
(a) percentage of cells that have phagocytized with respect to 100 phagocytizing cells;
(b) total number of phagocytized SRBC;
(c) average number of SRBC in each phagocyte.

[2] = tested on: splenocytes; assay: "In vitro-ex vivo" effect on the mytogen (PHA, LPS)-induced splenocyte proliferation in mice; parameters: species or system mouse (B6 D2 F1); settings: 25 mg/kg/day i.p.
Method: Assessment of the "in vitro-ex vivo" effect of ST 557, ST 563, ST 608 on the mytogen (PHA, LPS)-induced splenocyte proliferation in mice
Male B6 D2 F1 mice aged 6-10 weeks (4 animals per group) were used.
The compounds were administered i.p. 25 mg/kg/day, from day -5 to -1 (spleen excision at day 0).
PHA (active on T lymphocytes) and LPS (active on B lymphocytes) were used as mytogens. Each mytogen was tested at three different concentrations (suboptimal, optimal, superoptimal): 0.5, 4 and 6 mcg/ml/well and 0.5, 150 and 500 mcg/ml/well, respectively.
The experimental procedure was conducted substantially as described by Kirchner et al., "Splenic suppressor macrophages induced in mice by injection of C. parvum", J. Immunol., 1975, 115: 1212.
In particular, the cell suspensions obtained from the spleens of the animals of the same group were pooled and the cell concentration was adjusted to 5×10^6 cells/ml.
To volumes of 0.1 ml of each sample, equal volumes of the mytogen preparations were added so as to obtain, for each mytogen, the previously indicated final concentrations.
Each sample was prepared in triplicate in U-bottom microtiters. A control, to which 0.1 ml of medium were added instead of the mytogen, was also prepared. The control permits the extent of spontaneous proliferation in the absence of stimulation to be assessed.
The samples were incubated at 37° C. for 48 hours and then they were pulsed with 20 μl ^3 H-TdR (25 μCi/ml).
After 18 hours of further incubation, the cells were collected on filters and counted in a beta-counter.
The results of each sample are expressed by calculating the value of the area under the curve (AUC) obtained by plotting the values of the incorporated radioactivity (in cpm) versus the various concentrations of each mytogen.
In addition to AUC, the stimulation index (SI) is also considered, that is defined as follows. [formula]

[3] = tested on: murine peritoneal macrophages; tumor targets Daudi and CEM-CM3; assay: "In vitro-ex vivo" effect on the cytotoxic activity of peritoneal macrophages (lysis of 3H-TdR labelled tumor cells); parameters: species or system mouse (B6 D2 F1, C57B16); tumor targets human
Method: Assessment of the "in vitro-ex vivo" effect of ST 557, ST 563, ST 570 and ST 626 on the cytotoxic activity of peritoneal macrophages (M)
Male hybrid B6 D2 F1 aged 7-9 weeks and male inbred mice C57B16 aged 8 weeks were used (4 animals/group).
All the compounds were administered i.p. (25 mg/kg/day). ST 557 was also administered per os (100 mg/kg/day) from day -5 to day -1 (peritoneal exudate cell [PEC] harvesting at day 0).
PEC were obtained from sacrificed animals, 24 hours following the end of treatment, via repeated washings of the abdominal cavity. The peritoneal exudates obtained from each group of animals were pooled.
The macrophage percentage was assessed by counting in a Burker chamber; cell suspensions (concentration=2×10^6 M/ml) were prepared.
The macrophage cytotoxic activity was assessed using the following two tumor cell lines as targets: Daudi, derived from a human lymphoblastoma and CEM-CM3, derived from human lymphoblastic leukemia (both lines are disclosed in ATCC--American Type Culture Collection--Cell lines of hybridoma, 5th Ed.--1985).
The experimental procedure is substantially the same as that described by Herscowitz, H. B. (1981)--Manual of Macrophage Methodology. Dekker M, Editor.
In particular, samples of cell lines were labelled with ^3 H-TdR (tritiated thymidine) and their concentration was adjusted to 5×10^4 cells/ml. They were then added to the macrophage preparations (using 96-well microtiter plates) and the volumes were adjusted so as to obtain Effector (macrophage)/Target (tumor cell) ratios of 20:1; 40:1 and 80:1 in an overall volume of 0.3 ml/well.
Three replicates for each sample were prepared; after 48 and 72 hours of incubation at 37° C. in 5% CO2. Aliquots of 0.1 ml of supernatant were drawn out from each well and counted in a β-counter.
The macrophage cytotoxic activity results in a tumor cell lysis that causes the release of the radioactivity incorporated by the cells into the supernatant.
Based on the βeta-counter data (in cpm) this activity is expressed as the percentage of radioactivity released following lysis with respect to the radioactivity incorporated by the tumor cells.
The relevant formulas are as follows: [formula]
The measures carried out on the samples account for a certain degree of lysis occurring spontaneously in cultured tumor cells not exposed to macrophages. Total radioactivity incorporated by the tumor cells is calculated by conducting a lysis with 1% SDS in distilled water.

[4] = tested on: peritoneal macrophages of treated mice; target tumor cells; assay: "In vitro-ex vivo" effect on the cytostatic activity of peritoneal macrophages; parameters: species or system mouse (B6 D2 F1); tumor targets human
Method: Assessment of the "in vitro-ex vivo" effect of ST 557, ST 563 and ST 570 on the cytostatic activity of peritoneal macrophages
Male B6 D2 F1 mice aged 7-9 weeks (5 animals per group) were used.
The compounds were administered i.p. (25 mg/kg/day), ST 557 and ST 563 were also administered per os (100 mg/kg/day) from day -5 to day -1 (peritoneal cell harvesting at day 0).
The macrophages and target tumor cell lines were prepared as in test 1 and their concentrations were adjusted to 1×10^6 M/ml and 5×10^4 cell/ml, respectively.
Volumes of tumor cells were added to the macrophage preparations so as to obtain Effector/Target ratios of 10:1, 20:1 and 40:1.
Each sample was pulsed with ^3 H-TdR for 18 hours in order to label the tumor cells, which were then collected on filters and counted in a beta-counter.
The macrophage cytostatic activity is expressed as percentage inhibition of tumor cell replication, by assessing the radioactivity incorporated by the tumor cells in each sample with respect to the maximum radioactivity incorporated by a sample consisting of tumor cells only. [formula]

[5] = Tolerability after oral or intravenous administration; parameters: species or system mouse (Swiss albino); settings: mouse, in vivo, 7 days observation, read-out: Tolerability, dose
Method: The test was conducted in male Swiss albino mice weighing 22-24 g.
A group of animals (4 animals/dose) which had been kept fasting for 18 hours, were orally administered the compounds ST 557, ST 563, ST 564 and ST 570 dissolved in twice distilled water.
A further group of animals, which had free access to food and water, were administered intravenously the same compounds dissolved in saline it pH 7. All the animals were kept under observation for 7 days.

[6] = tested on: murine peritoneal exudate cells (PEC); assay: "In vitro-ex vivo" effect on the phagocytic activity of exudate peritoneal cells (SRBC phagocytosis); parameters: species or system mouse (B6 D2 F1); settings: 26 mg/kg/day i.p. (so in the source)
[7] = 48 hours, E/T 20:1, 25 mg/kg/day i.p., B6 D2 F1
[8] = 48 hours, E/T 20:1, 25 mg/kg/day i.p., repeated experiment, B6 D2 F1
[9] = 48 hours, E/T 20:1, 25 mg/kg/day i.p., repeated experiment, C57B16 mice
[10] = 48 hours, E/T 40:1, 25 mg/kg/day i.p., B6 D2 F1
[11] = 48 hours, E/T 40:1, 25 mg/kg/day i.p., repeated experiment, B6 D2 F1
[12] = 48 hours, E/T 40:1, 25 mg/kg/day i.p., repeated experiment, C57B16 mice
[13] = 48 hours, E/T 80:1, 25 mg/kg/day i.p., repeated experiment, B6 D2 F1
[14] = 72 hours, E/T 20:1, 25 mg/kg/day i.p., B6 D2 F1
[15] = 72 hours, E/T 20:1, 25 mg/kg/day i.p., repeated experiment, B6 D2 F1
[16] = 72 hours, E/T 20:1, 25 mg/kg/day i.p., repeated experiment, C57B16 mice
[17] = 72 hours, E/T 40:1, 25 mg/kg/day i.p., B6 D2 F1
[18] = 72 hours, E/T 40:1, 25 mg/kg/day i.p., repeated experiment, B6 D2 F1
[19] = 72 hours, E/T 40:1, 25 mg/kg/day i.p., repeated experiment, C57B16 mice
[20] = 72 hours, E/T 80:1, 25 mg/kg/day i.p., repeated experiment, B6 D2 F1

SMILES	Fagocytizing cells ([1]; 25 mg/kg/day i.p.) [%]	Total n° SRBC phagocytized ([1]; 25 mg/kg/day i.p.)	SRBC per phagocytizing cell ([1]; 25 mg/kg/day i.p.)	% lysis of tumor target [3, 7] [%]	% lysis of tumor target [3, 8] [%]	% lysis of tumor target [3, 9] [%]	% lysis of tumor target [3, 10] [%]	% lysis of tumor target [3, 11]	% lysis of tumor target [3, 12] [%]	% lysis of tumor target [3, 13]	% lysis of tumor target [3, 14] [%]	% lysis of tumor target [3, 15] [%]	% lysis of tumor target [3, 16] [%]	% lysis of tumor target [3, 17] [%]	% lysis of tumor target [3, 18]	% lysis of tumor target [3, 19] [%]	% lysis of tumor target [3, 20]	other results
CCCNC1CCc2cc(OC(C)=O)c(OC(C)=O)cc2C1 (stereo not shown) [ST 608, 2-N-propylamino-6,7-diacetoxytetraline]	41.0	137.5	3.30	–	–	–	–	–	–	–	–	–	–	–	–	–	–	AUC (area under curve, incorporated radioactivity vs mytogen concentration) ([2]; LPS): 10333 ± 807 ×10^-3 and 18054 ± 970 ×10^-3 and 14490 ± 433 ×10^-3 and 15892 ± 339 ×10^-3; S.I. (stimulation index) ([2]; LPS): 1.27 and 1.10 and 1.20 and 1.06; AUC (area under curve, incorporated radioactivity vs mytogen concentration) ([2]; PHA): 183 ± 6 ×10^-3 and 128 ± 4 ×10^-3 and 146 ± 4 ×10^-3 and 233 ± 2 ×10^-3; S.I. (stimulation index) ([2]; PHA): 1.11 and 1.04 and 1.07 and 1.12
COc1cc2c(cc1F)CCC(N)C2 (stereo not shown) [ST 626, 2-amino-6-fluoro-7-methoxytetraline]	41.0	137.5	3.30	7.4 ± 0.2	8.0 ± 0.8	11.8 ± 0.6	12.8 ± 0.8	18.7 ± 0.1% and 11.6 ± 0.7%	12.7 ± 0.1	18.8 ± 0.1% and 28.0 ± 5.6%	10.8 ± 0.3	12.3 ± 0.6	12.6 ± 0.1	17.6 ± 0.8	27.5 ± 0.6% and 14.3 ± 0.6%	13.5 ± 0.7	28.0 ± 0.7% and 32.0 ± 4.3%	Fagocytizing cells ([1]; 100 mg/kg/day os): 57.0%; Total n° SRBC phagocytized ([1]; 100 mg/kg/day os): 222.0; SRBC per phagocytizing cell ([1]; 100 mg/kg/day os): 3.89
CCN(CC(O)c1ccccc1)C1CCc2cc(OC)c(OC)cc2C1 (stereo not shown) [ST 570, 2-[(N-ethyl, N-2-hydroxy-2-phenylethyl)amino]-6,7-dimethoxytetraline]	–	–	–	14.0 ± 0.7	9.0 ± 0.4	8.8 ± 1.2	34.7 ± 1.2	10.9 ± 1.0%	13.0 ± 0.5	19.0 ± 1.0%	19.3 ± 0.7	13.2 ± 0.2	10.8 ± 1.5	45.4 ± 2.1	15.7 ± 0.8%	14.9 ± 0.3	25.3 ± 1.0%	% of inhibition of target tumor growth ([4]; E/T 20:1, 25 mg/kg/day i.p.): 38.3 ± 2.5%; % of inhibition of target tumor growth ([4]; E/T 40:1, 25 mg/kg/day i.p.): 71.0 ± 2.4%; MTD at 168 h ([5]; iv): > 20 mg/kg; MTD at 168 h ([5]; po, os, fasting 18 hours): > 50 mg/kg; % lysis of tumor target ([3]; 48 hours, E/T 80:1, 25 mg/kg/day i.p., repeated experiment, C57B16 mice): 14.6 ± 0.6%; % lysis of tumor target ([3]; 72 hours, E/T 80:1, 25 mg/kg/day i.p., repeated experiment, C57B16 mice): 16.2 ± 0.8%; Fagocytizing cells [6]: 41.0%; SRBC per phagocytizing cell ([6]; average number of SRBC in each phagocyte): 3.3

— patent US5962525A, “6,7-disubstituted-2-aminotetralines active as immunomodulators and pharmaceutical compositions containing same” (Sigma-Tau, priority 1990, dated 1999)
